Results reported in patent publication US20070173527A1, “HISTONE DEACETYLASE INHIBITORS” (priority 2006, published 2007).

Molecular target: HDAC2 (Homo sapiens, UniProt Q92769)
Experiment: HDAC2 fluorescence inhibition assay (tBoc-Lys(Ac)-AMC)

Sequence of HDAC2 (Q92769 whole entry): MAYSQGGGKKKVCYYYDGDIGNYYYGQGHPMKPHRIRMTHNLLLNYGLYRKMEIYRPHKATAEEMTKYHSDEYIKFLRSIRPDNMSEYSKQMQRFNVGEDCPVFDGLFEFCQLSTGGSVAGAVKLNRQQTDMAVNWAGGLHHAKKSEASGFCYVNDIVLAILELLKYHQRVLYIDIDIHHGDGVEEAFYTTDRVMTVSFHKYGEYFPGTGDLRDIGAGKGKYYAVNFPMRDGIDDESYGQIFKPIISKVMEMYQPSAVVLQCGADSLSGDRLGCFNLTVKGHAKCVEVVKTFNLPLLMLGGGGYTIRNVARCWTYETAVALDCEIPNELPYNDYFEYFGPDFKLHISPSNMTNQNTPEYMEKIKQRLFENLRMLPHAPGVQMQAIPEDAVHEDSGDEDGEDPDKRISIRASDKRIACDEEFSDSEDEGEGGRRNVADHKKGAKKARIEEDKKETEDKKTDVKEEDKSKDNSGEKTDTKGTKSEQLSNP

IC50 [nM]	Compound
100 to 1000	Nc1ccccc1NC(=O)c1ccc(C[S+]([O-])c2nc3ccccc3[nH]2)cc1 (centres unmarked) [Example 5, 4-((1H-benzo[d]imidazol-2-ylsulfinyl)methyl)-N-(2-aminophenyl)benzamide]
100 to 1000	Nc1ccccc1NC(=O)c1ccc(COc2nc3cccnc3[nH]2)cc1 [Example 4, 4-((3H-imidazo[4,5-b]pyridin-2-yloxy)methyl)-N-(2-aminophenyl)benzamide]
> 1000	Nc1ccccc1NC(=O)c1ccc(COc2nc3cccnc3[nH]2)s1 [Example 12, 5-((3H-imidazo[4,5-b]pyridin-2-yloxy)methyl)-N-(2-aminophenyl)thiophene-2-carboxamide]
100 to 1000	Nc1ccccc1NC(=O)c1ccc(COc2nc3ccncc3[nH]2)cc1 [Example 11, 4-((3H-imidazo[4,5-c]pyridin-2-yloxy)methyl)-N-(2-aminophenyl)benzamide]
100 to 1000	Nc1ccccc1NC(=O)c1ccc(CS(=O)(=O)c2nc3ccccc3[nH]2)cc1 [Example 6, 4-((1H-benzo[d]imidazol-2-ylsulfonyl)methyl)-N-(2-aminophenyl)benzamide]
< 100	Nc1ccccc1NC(=O)c1ccc(CNc2nc3ccccc3[nH]2)cc1 [Example 2, 4-((1H-benzo[d]imidazol-2-ylamino)methyl)-N-(2-aminophenyl)benzamide]
< 100	CC(C)n1c(SCc2ccc(C(=O)Nc3ccccc3N)cc2)nc2ccccc21 [Example 7, N-(2-aminophenyl)-4-((1-isopropyl-1H-benzo[d]imidazol-2-ylthio)methyl)benzamide]
< 100	Nc1ccccc1NC(=O)c1ccc(CSc2nc3cccnc3[nH]2)cc1 [Example 9, 4-((3H-imidazo[4,5-b]pyridin-2-ylthio)methyl)-N-(2-aminophenyl)benzamide]
100 to 1000	Nc1ccccc1NC(=O)c1ccc(CSc2nc3ccccc3n2C2CCCCC2)cc1 [Example 8, N-(2-aminophenyl)-4-((1-cyclohexyl-1H-benzo[d]imidazol-2-ylthio)methyl)benzamide]
< 100	Nc1ccccc1NC(=O)c1ccc(CSc2nc3ccncc3[nH]2)cc1 [Example 10, 4-((3H-imidazo[4,5-c]pyridin-2-ylthio)methyl)-N-(2-aminophenyl)benzamide]
100 to 1000	Nc1ccccc1NC(=O)c1ccc(CSc2nc3ccccc3[nH]2)cc1 [Example 3, 4-((1H-benzo[d]imidazol-2-ylthio)methyl)-N-(2-aminophenyl)benzamide]
